Reference: PubChem BioAssay (NCI)
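Test compounds were applied to cells in 96-well plates for 48 hours at 5 doses. GI50 marks 50% less growth. TGI: concentration producing complete growth inhibition.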

Columns and labels:
Experiment in all cases: inhibition of tumour cell growth, NCI panel, 48 h
SK-OV-3 ovarian = test system: SK-OV-3 ovarian
SNB-19 CNS = test system: SNB-19 CNS
SF-539 CNS = test system: SF-539 CNS
HOP-62 NSCLC = test system: HOP-62 NSCLC
OVCAR-8 ovarian = test system: OVCAR-8 ovarian
SW-620 colon = test system: SW-620 colon
HL-60(TB) leukemia = test system: HL-60(TB) leukemia
KM20L2 colon = test system: KM20L2 colon
CCRF-CEM leukemia = test system: CCRF-CEM leukemia
NCI-H522 lung = test system: NCI-H522 lung
LOX IMVI melanoma = test system: LOX IMVI melanoma
A549 NSCLC = test system: A549 NSCLC
OVCAR-4 ovarian = test system: OVCAR-4 ovarian
KM12 colon = test system: KM12 colon
NCI-H23 lung = test system: NCI-H23 lung
A498 renal = test system: A498 renal
UO-31 renal = test system: UO-31 renal
SN12C renal = test system: SN12C renal
M14 melanoma = test system: M14 melanoma
NCI-H460 lung = test system: NCI-H460 lung
M19-MEL melanoma = test system: M19-MEL melanoma
LXFL 529 NSCLC = test system: LXFL 529 NSCLC
MALME-3M melanoma = test system: MALME-3M melanoma
HCT-116 colon = test system: HCT-116 colon
HT29 colon = test system: HT29 colon
UACC-62 melanoma = test system: UACC-62 melanoma
SF-268 CNS = test system: SF-268 CNS
HOP-18 NSCLC = test system: HOP-18 NSCLC
RXF 393 renal = test system: RXF 393 renal
NCI-H226 lung = test system: NCI-H226 lung
IGROV1 ovarian = test system: IGROV1 ovarian
RPMI-8226 leukemia = test system: RPMI-8226 leukemia
CAKI-1 renal = test system: CAKI-1 renal
HCT-15 colon = test system: HCT-15 colon
786-0 renal = test system: 786-0 renal
SF-295 CNS = test system: SF-295 CNS
TK-10 renal = test system: TK-10 renal
UACC-257 melanoma = test system: UACC-257 melanoma
COLO 205 colon = test system: COLO 205 colon
OVCAR-3 ovarian = test system: OVCAR-3 ovarian
HCC-2998 colon = test system: HCC-2998 colon
MOLT-4 leukemia = test system: MOLT-4 leukemia
SNB-75 CNS = test system: SNB-75 CNS
SK-MEL-5 melanoma = test system: SK-MEL-5 melanoma
SK-MEL-28 melanoma = test system: SK-MEL-28 melanoma
HOP-92 NSCLC = test system: HOP-92 NSCLC
ACHN renal = test system: ACHN renal
SK-MEL-2 melanoma = test system: SK-MEL-2 melanoma
U251 CNS = test system: U251 CNS
K-562 leukemia = test system: K-562 leukemia
DLD-1 colon = test system: DLD-1 colon
OVCAR-5 ovarian = test system: OVCAR-5 ovarian
MDA-MB-435 = test system: MDA-MB-435
EKVX NSCLC = test system: EKVX NSCLC
MDA-N = test system: MDA-N
DU-145 prostate = test system: DU-145 prostate
HS 578T breast = test system: HS 578T breast
PC-3 prostate = test system: PC-3 prostate
NCI/ADR-RES ovarian = test system: NCI/ADR-RES ovarian
T-47D breast = test system: T-47D breast
MCF7 breast = test system: MCF7 breast
BT-549 breast = test system: BT-549 breast
MDA-MB-231 breast = test system: MDA-MB-231 breast
SR leukemia = test system: SR leukemia

CC(=O)[CH-]C(=O)c1ccccc1.CC(=O)[CH-]C(=O)c1ccccc1.[Nd+3].[OH-].[OH3+]
GI50 (SK-OV-3 ovarian): > 100 µM | TGI (SK-OV-3 ovarian): > 100 µM | GI50 (SNB-19 CNS): > 100 µM | TGI (SNB-19 CNS): > 100 µM | GI50 (SF-539 CNS): > 100 µM | TGI (SF-539 CNS): > 100 µM | GI50 (HOP-62 NSCLC): > 100 µM | TGI (HOP-62 NSCLC): > 100 µM | GI50 (OVCAR-8 ovarian): > 100 µM | TGI (OVCAR-8 ovarian): > 100 µM | GI50 (SW-620 colon): > 100 µM | TGI (SW-620 colon): > 100 µM | GI50 (HL-60(TB) leukemia): > 100 µM | TGI (HL-60(TB) leukemia): > 100 µM | GI50 (KM20L2 colon): > 100 µM | TGI (KM20L2 colon): > 100 µM | GI50 (CCRF-CEM leukemia): > 100 µM | TGI (CCRF-CEM leukemia): > 100 µM | GI50 (NCI-H522 lung): > 100 µM | TGI (NCI-H522 lung): > 100 µM | GI50 (LOX IMVI melanoma): > 100 µM | TGI (LOX IMVI melanoma): > 100 µM | GI50 (A549 NSCLC): > 100 µM | TGI (A549 NSCLC): > 100 µM | GI50 (OVCAR-4 ovarian): > 100 µM | TGI (OVCAR-4 ovarian): > 100 µM | GI50 (KM12 colon): > 100 µM | TGI (KM12 colon): > 100 µM | GI50 (NCI-H23 lung): > 100 µM | TGI (NCI-H23 lung): > 100 µM | GI50 (A498 renal): > 100 µM | TGI (A498 renal): > 100 µM | GI50 (UO-31 renal): > 100 µM | TGI (UO-31 renal): > 100 µM | GI50 (SN12C renal): > 100 µM | TGI (SN12C renal): > 100 µM | GI50 (M14 melanoma): > 100 µM | TGI (M14 melanoma): > 100 µM | GI50 (NCI-H460 lung): > 100 µM | TGI (NCI-H460 lung): > 100 µM | GI50 (M19-MEL melanoma): > 100 µM | TGI (M19-MEL melanoma): > 100 µM | GI50 (LXFL 529 NSCLC): > 100 µM | TGI (LXFL 529 NSCLC): > 100 µM | GI50 (MALME-3M melanoma): > 100 µM | TGI (MALME-3M melanoma): > 100 µM | GI50 (HCT-116 colon): > 100 µM | TGI (HCT-116 colon): > 100 µM | GI50 (HT29 colon): > 100 µM | TGI (HT29 colon): > 100 µM | GI50 (UACC-62 melanoma): > 100 µM | TGI (UACC-62 melanoma): > 100 µM | GI50 (SF-268 CNS): > 100 µM | TGI (SF-268 CNS): > 100 µM | GI50 (HOP-18 NSCLC): > 100 µM | TGI (HOP-18 NSCLC): > 100 µM | GI50 (RXF 393 renal): > 100 µM | TGI (RXF 393 renal): > 100 µM | GI50 (NCI-H226 lung): > 100 µM | TGI (NCI-H226 lung): > 100 µM | GI50 (IGROV1 ovarian): > 100 µM | TGI (IGROV1 ovarian): > 100 µM | GI50 (RPMI-8226 leukemia): > 100 µM | TGI (RPMI-8226 leukemia): > 100 µM | GI50 (CAKI-1 renal): > 100 µM | TGI (CAKI-1 renal): > 100 µM | GI50 (HCT-15 colon): > 100 µM | TGI (HCT-15 colon): > 100 µM | GI50 (786-0 renal): > 100 µM | TGI (786-0 renal): > 100 µM | GI50 (SF-295 CNS): > 100 µM | TGI (SF-295 CNS): > 100 µM | GI50 (TK-10 renal): > 100 µM | TGI (TK-10 renal): > 100 µM | GI50 (UACC-257 melanoma): > 100 µM | TGI (UACC-257 melanoma): > 100 µM | GI50 (COLO 205 colon): > 100 µM | TGI (COLO 205 colon): > 100 µM | GI50 (OVCAR-3 ovarian): > 100 µM | TGI (OVCAR-3 ovarian): > 100 µM | GI50 (HCC-2998 colon): > 100 µM | TGI (HCC-2998 colon): > 100 µM | GI50 (MOLT-4 leukemia): > 100 µM | TGI (MOLT-4 leukemia): > 100 µM | GI50 (SNB-75 CNS): 60.5 µM | TGI (SNB-75 CNS): > 100 µM | GI50 (SK-MEL-5 melanoma): > 100 µM | TGI (SK-MEL-5 melanoma): > 100 µM | GI50 (SK-MEL-28 melanoma): > 100 µM | TGI (SK-MEL-28 melanoma): > 100 µM | GI50 (HOP-92 NSCLC): > 100 µM | TGI (HOP-92 NSCLC): > 100 µM | GI50 (ACHN renal): > 100 µM | TGI (ACHN renal): > 100 µM | GI50 (SK-MEL-2 melanoma): > 100 µM | TGI (SK-MEL-2 melanoma): > 100 µM | GI50 (U251 CNS): > 100 µM | TGI (U251 CNS): > 100 µM | GI50 (K-562 leukemia): > 100 µM | TGI (K-562 leukemia): > 100 µM | GI50 (DLD-1 colon): > 100 µM | TGI (DLD-1 colon): > 100 µM

COc1ccc2nc3ccc(OC)cc3c(S(=O)Cc3ccc([N+](=O)[O-])cc3)c2c1 (stereo not given)
TGI (SK-OV-3 ovarian): 40.1 µM | TGI (SNB-19 CNS): 52.3 µM | TGI (SF-539 CNS): 7.25 µM | TGI (HOP-62 NSCLC): 30.7 µM | TGI (OVCAR-8 ovarian): 13.1 µM | TGI (OVCAR-5 ovarian): 34.5 µM | TGI (MDA-MB-435): 26 µM | TGI (HL-60(TB) leukemia): 6.97 µM | TGI (EKVX NSCLC): 32.5 µM | TGI (CCRF-CEM leukemia): > 21.9 µM | TGI (NCI-H522 lung): 3.37 µM | TGI (MDA-N): 29.7 µM | TGI (LOX IMVI melanoma): 34.7 µM | TGI (A549 NSCLC): > 58 µM | TGI (OVCAR-4 ovarian): 23.7 µM | TGI (KM12 colon): 42 µM | TGI (DU-145 prostate): 6.59 µM | TGI (NCI-H23 lung): 25.1 µM | TGI (A498 renal): 36.3 µM | TGI (UO-31 renal): 12.9 µM | TGI (SN12C renal): 9.94 µM | TGI (M14 melanoma): 30.6 µM | TGI (NCI-H460 lung): 67.4 µM | TGI (MALME-3M melanoma): 5.18 µM | TGI (HS 578T breast): 25.9 µM | TGI (HCT-116 colon): 3.12 µM | TGI (HT29 colon): 6.33 µM | TGI (UACC-62 melanoma): 29.5 µM | TGI (SF-268 CNS): 47.5 µM | TGI (RXF 393 renal): 28.6 µM | TGI (NCI-H226 lung): 45.6 µM | TGI (IGROV1 ovarian): 11.1 µM | TGI (RPMI-8226 leukemia): 7.7 µM | TGI (PC-3 prostate): 27.6 µM | TGI (CAKI-1 renal): 28.6 µM | TGI (HCT-15 colon): 10.5 µM | TGI (NCI/ADR-RES ovarian): 62.3 µM | TGI (786-0 renal): 4.26 µM | TGI (SF-295 CNS): 41.8 µM | TGI (T-47D breast): 4.34 µM | TGI (TK-10 renal): 10.4 µM | TGI (UACC-257 melanoma): 11.4 µM | TGI (COLO 205 colon): 15.9 µM | TGI (OVCAR-3 ovarian): 14.2 µM | TGI (MCF7 breast): 4.26 µM | TGI (BT-549 breast): 33.4 µM | TGI (MDA-MB-231 breast): 29.9 µM | TGI (HCC-2998 colon): 34 µM | TGI (MOLT-4 leukemia): > 23.2 µM | TGI (SNB-75 CNS): 35.9 µM | TGI (SR leukemia): > 33.6 µM | TGI (SK-MEL-5 melanoma): 31.8 µM | TGI (SK-MEL-28 melanoma): 15.7 µM | TGI (HOP-92 NSCLC): > 23.5 µM | TGI (ACHN renal): 11.2 µM | TGI (SK-MEL-2 melanoma): 34.9 µM | TGI (U251 CNS): > 55.2 µM | TGI (K-562 leukemia): > 100 µM
